Reference: the kinase profiling compilation of Christmann-Franck et al. (2016)

What was measured:
Assay in all cases: KINOMEscan competition binding
Conditions in all cases: compound 0.1 µM
[1] = system: PIK3CA (human), P42336 [H1047Y]
RPS6KA6 KD1 (human) = RPS6KA6 KD1 (human) (UniProt Q9UK32)
EPHB2 (human) = EPHB2 (human) (UniProt P29323)
[2] = system: ABL1 (human), P00519 [E255K]
RPS6KA3 KD2 (human) = RPS6KA3 KD2 (human) (UniProt P51812)
[3] = system: EGFR (human), P00533 [L858R]
FGFR4 (human) = FGFR4 (human) (UniProt P22455)
KDR (human) = KDR (human) (UniProt P35968)
SGK2 (human) = SGK2 (human) (UniProt Q9HBY8)
RAF1 (human) = RAF1 (human) (UniProt P04049)
CDK18 (human) = CDK18 (human) (UniProt Q07002)
MAPK15 (human) = MAPK15 (human) (UniProt Q8TD08)
[4] = system: EGFR (human), P00533 [T790M/L858R]
PDPK1 (human) = PDPK1 (human) (UniProt O15530)
DSTYK (human) = DSTYK (human) (UniProt Q6XUX3)
CHEK2 (human) = CHEK2 (human) (UniProt O96017)
BMP2K (human) = BMP2K (human) (UniProt Q9NSY1)
WEE1 (human) = WEE1 (human) (UniProt P30291)
CLK1 (human) = CLK1 (human) (UniProt P49759)
[5] = target: JAK2 JH1 catalytic (human) (UniProt O60674)
MAP2K5 (human) = MAP2K5 (human) (UniProt Q13163)
[6] = system: MET (human), P08581 [Y1235D]
CAMKK2 (human) = CAMKK2 (human) (UniProt Q96RR4)
CAMK2A (human) = CAMK2A (human) (UniProt Q9UQM7)
CaMK1 (human) = CaMK1 (human) (UniProt Q14012)
VRK2 (human) = VRK2 (human) (UniProt Q86Y07)
ALK (human) = ALK (human) (UniProt Q9UM73)
CSNK1G2 (human) = CSNK1G2 (human) (UniProt P78368)
SIK3 (human) = SIK3 (human) (UniProt Q9Y2K2)
MAP4K2 (human) = MAP4K2 (human) (UniProt Q12851)
TXK (human) = TXK (human) (UniProt P42681)
IGF1R (human) = IGF1R (human) (UniProt P08069)
[7] = system: EGFR (human), P00533 [752-759 del]
RIPK2 (human) = RIPK2 (human) (UniProt O43353)
Sequence of RIPK2 (human) (O43353 whole entry, looked up): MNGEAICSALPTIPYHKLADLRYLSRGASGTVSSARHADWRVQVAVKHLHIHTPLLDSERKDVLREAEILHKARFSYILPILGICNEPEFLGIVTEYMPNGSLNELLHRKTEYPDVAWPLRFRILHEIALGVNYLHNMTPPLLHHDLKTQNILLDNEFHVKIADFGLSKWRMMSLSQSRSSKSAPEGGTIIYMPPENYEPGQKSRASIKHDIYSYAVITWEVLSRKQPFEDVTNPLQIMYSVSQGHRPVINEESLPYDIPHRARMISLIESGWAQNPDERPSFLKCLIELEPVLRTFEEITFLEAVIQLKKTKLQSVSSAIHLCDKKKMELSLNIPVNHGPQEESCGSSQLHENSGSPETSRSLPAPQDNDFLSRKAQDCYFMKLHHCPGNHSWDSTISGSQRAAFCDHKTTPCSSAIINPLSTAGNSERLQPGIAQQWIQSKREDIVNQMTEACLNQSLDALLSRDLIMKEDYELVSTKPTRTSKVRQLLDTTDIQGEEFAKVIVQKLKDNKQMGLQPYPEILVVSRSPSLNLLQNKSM

Sequence of DSTYK (human) (Q6XUX3 whole entry, looked up): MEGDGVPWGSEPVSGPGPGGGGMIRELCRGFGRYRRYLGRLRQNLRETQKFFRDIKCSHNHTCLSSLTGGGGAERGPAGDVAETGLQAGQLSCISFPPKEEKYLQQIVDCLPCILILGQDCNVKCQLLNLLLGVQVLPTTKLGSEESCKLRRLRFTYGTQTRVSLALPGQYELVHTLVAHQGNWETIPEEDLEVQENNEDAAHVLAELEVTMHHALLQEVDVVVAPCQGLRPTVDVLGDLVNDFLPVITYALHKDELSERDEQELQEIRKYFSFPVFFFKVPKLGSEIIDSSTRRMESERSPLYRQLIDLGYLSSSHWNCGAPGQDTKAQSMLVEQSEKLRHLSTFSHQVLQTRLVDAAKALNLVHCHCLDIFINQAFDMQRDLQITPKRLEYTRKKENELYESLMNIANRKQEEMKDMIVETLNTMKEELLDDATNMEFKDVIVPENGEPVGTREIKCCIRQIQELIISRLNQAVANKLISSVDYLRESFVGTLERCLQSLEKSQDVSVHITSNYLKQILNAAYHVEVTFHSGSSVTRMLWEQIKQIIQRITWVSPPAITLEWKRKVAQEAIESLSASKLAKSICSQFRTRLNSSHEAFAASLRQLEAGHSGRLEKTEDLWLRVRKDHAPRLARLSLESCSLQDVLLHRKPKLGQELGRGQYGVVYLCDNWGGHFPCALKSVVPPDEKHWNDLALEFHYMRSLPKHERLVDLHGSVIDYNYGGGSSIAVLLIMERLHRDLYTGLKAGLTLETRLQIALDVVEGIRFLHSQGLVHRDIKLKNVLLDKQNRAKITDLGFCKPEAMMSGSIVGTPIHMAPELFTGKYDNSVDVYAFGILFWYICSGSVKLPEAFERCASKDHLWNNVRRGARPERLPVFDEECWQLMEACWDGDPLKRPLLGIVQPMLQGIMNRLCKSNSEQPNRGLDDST
Sequence of CSNK1G2 (human) (P78368 whole entry, looked up): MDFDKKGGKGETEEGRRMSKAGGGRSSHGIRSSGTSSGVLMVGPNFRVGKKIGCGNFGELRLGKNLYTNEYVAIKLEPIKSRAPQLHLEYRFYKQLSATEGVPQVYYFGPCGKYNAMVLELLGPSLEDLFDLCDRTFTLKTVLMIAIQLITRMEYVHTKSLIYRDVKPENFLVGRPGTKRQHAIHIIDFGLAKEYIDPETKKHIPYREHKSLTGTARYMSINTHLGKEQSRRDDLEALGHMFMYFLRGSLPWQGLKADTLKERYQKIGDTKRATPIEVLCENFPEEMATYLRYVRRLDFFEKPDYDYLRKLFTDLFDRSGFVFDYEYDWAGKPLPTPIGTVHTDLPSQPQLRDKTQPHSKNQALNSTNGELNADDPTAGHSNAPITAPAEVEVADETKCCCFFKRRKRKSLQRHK
Sequence of PIK3CA (human), P42336 [H1047Y] (P42336 whole entry H1047Y, looked up): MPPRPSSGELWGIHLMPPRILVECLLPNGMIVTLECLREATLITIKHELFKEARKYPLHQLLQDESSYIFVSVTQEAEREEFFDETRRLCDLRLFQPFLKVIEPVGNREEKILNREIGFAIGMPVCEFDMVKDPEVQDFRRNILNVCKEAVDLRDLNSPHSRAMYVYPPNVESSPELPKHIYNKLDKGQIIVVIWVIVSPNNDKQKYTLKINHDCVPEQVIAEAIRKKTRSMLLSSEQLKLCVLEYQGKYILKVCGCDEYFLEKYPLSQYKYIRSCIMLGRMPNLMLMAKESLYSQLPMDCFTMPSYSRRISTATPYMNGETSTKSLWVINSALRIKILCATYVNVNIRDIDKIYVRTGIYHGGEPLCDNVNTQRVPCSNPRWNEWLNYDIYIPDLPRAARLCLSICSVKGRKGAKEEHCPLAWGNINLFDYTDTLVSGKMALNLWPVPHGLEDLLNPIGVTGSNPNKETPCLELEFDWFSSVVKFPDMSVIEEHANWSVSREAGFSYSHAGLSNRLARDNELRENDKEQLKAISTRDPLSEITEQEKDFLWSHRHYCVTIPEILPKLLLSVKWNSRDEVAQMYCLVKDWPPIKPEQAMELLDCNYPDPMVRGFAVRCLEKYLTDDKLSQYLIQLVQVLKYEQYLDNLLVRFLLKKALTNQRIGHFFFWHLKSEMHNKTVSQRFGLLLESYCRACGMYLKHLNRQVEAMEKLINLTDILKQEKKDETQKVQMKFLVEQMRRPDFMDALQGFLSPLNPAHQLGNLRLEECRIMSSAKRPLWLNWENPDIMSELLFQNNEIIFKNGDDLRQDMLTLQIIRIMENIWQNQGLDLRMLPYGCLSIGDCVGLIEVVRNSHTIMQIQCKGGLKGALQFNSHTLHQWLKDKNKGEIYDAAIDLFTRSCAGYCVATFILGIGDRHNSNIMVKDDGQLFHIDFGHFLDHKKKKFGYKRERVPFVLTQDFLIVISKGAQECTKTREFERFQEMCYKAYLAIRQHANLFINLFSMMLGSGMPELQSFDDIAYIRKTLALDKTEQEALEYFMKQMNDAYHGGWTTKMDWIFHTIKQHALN
Sequence of CAMK2A (human) (Q9UQM7 whole entry, looked up): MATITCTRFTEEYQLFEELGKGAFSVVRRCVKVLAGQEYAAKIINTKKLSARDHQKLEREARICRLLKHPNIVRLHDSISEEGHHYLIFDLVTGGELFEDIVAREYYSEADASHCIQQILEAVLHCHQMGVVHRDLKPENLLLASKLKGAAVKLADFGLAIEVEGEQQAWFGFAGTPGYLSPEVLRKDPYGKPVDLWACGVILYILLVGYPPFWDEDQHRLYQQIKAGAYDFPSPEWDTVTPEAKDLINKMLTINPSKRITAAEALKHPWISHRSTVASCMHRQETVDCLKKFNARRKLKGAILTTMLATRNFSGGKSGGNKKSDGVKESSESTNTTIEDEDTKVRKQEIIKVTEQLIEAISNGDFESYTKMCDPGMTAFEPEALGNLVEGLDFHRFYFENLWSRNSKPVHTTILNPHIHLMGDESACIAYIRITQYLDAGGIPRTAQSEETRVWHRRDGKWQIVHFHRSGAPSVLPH
Sequence of SIK3 (human) (Q9Y2K2 whole entry, looked up): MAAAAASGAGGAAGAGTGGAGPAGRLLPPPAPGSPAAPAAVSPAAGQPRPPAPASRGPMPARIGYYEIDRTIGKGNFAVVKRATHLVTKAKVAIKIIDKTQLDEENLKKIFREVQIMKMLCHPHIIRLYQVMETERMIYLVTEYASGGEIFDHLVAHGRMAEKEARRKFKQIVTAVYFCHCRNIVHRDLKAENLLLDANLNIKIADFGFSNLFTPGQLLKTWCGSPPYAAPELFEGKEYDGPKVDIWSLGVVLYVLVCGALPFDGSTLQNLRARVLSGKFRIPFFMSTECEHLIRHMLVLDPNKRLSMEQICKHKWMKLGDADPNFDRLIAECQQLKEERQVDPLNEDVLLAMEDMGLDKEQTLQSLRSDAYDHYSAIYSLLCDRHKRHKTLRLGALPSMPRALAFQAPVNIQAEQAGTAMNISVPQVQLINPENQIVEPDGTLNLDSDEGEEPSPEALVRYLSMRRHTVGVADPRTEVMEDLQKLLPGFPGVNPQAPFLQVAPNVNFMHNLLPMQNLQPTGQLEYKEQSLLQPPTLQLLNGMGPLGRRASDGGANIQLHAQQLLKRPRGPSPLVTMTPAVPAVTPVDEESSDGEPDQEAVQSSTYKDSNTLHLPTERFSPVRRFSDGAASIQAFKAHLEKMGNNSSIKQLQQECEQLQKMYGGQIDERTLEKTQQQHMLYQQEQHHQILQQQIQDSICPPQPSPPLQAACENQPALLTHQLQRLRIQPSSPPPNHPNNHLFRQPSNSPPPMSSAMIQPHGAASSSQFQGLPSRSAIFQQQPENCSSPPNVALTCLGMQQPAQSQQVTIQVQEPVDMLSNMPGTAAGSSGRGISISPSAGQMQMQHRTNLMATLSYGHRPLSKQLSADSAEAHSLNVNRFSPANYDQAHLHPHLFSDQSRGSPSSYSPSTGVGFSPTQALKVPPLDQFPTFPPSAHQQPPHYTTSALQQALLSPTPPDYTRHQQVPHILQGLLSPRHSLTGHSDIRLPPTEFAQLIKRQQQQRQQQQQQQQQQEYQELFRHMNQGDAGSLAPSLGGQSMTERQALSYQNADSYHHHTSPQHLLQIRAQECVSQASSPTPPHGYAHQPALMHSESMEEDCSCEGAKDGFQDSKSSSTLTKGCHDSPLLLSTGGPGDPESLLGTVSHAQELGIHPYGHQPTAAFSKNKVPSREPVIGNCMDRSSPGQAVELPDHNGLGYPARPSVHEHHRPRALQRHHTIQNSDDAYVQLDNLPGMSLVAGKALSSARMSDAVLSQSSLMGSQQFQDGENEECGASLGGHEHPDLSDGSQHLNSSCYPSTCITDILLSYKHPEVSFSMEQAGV

## CCc1ccc(C(=O)Nc2cc(CN3CCN(C)CC3)cc(C(F)(F)F)c2)cc1C#Cc1cnc2ccnn2c1
[1]
  kinase still bound, per cent of control: 76%
RPS6KA6 KD1 (human)
  kinase still bound, per cent of control: 100%
EPHB2 (human)
  kinase still bound, per cent of control: 100%
[2]
  kinase still bound, per cent of control: 100%
RPS6KA3 KD2 (human)
  kinase still bound, per cent of control: 100%
[3]
  kinase still bound, per cent of control: 100%
FGFR4 (human)
  kinase still bound, per cent of control: 86%
KDR (human)
  kinase still bound, per cent of control: 100%
SGK2 (human)
  kinase still bound, per cent of control: 94%
RAF1 (human)
  kinase still bound, per cent of control: 57%
CDK18 (human)
  kinase still bound, per cent of control: 100%
MAPK15 (human)
  kinase still bound, per cent of control: 100%
[4]
  kinase still bound, per cent of control: 48%
PDPK1 (human)
  kinase still bound, per cent of control: 100%
DSTYK (human)
  kinase still bound, per cent of control: 100%
CHEK2 (human)
  kinase still bound, per cent of control: 100%
BMP2K (human)
  kinase still bound, per cent of control: 86%
WEE1 (human)
  kinase still bound, per cent of control: 100%
CLK1 (human)
  kinase still bound, per cent of control: 71%
[5]
  kinase still bound, per cent of control: 100%
MAP2K5 (human)
  kinase still bound, per cent of control: 100%
[6]
  kinase still bound, per cent of control: 55%
CAMKK2 (human)
  kinase still bound, per cent of control: 73%
CAMK2A (human)
  kinase still bound, per cent of control: 92%
CaMK1 (human)
  kinase still bound, per cent of control: 75%
VRK2 (human)
  kinase still bound, per cent of control: 100%
ALK (human)
  kinase still bound, per cent of control: 100%
CSNK1G2 (human)
  kinase still bound, per cent of control: 100%
SIK3 (human)
  kinase still bound, per cent of control: 100%
MAP4K2 (human)
  kinase still bound, per cent of control: 100%
TXK (human)
  kinase still bound, per cent of control: 79%
IGF1R (human)
  kinase still bound, per cent of control: 100%
[7]
  kinase still bound, per cent of control: 100%
RIPK2 (human)
  kinase still bound, per cent of control: 56%
